Measurements reported in BindingDB's records for doi:10.1016/j.bmcl.2009.01.008 (Pfizer, 2009).
Where “and” joins values, the source holds several entries; their conditions need not be identical. Equal values may be shown once.

Assay: Antagonist activity at human recombinant CCR5 expressed in human HeLa-P4 cells assessed as inhibition of human HeLa-P4 cells binding to HIV1 gp160 expressing CHO cells by cell-cell fusion assay

SMILES	IC50
Cc1nnc(C(C)C)n1C1CCN(C(C)C[C@H](NC(=O)C2CC(F)(F)C2)c2ccccc2)CC1 (mixture of isomers)	1.3 nM and 0.38 nM
Cc1nnc(C(C)C)n1C1CCN(C(C)C[C@H](NC(=O)C2CCS(=O)(=O)CC2)c2ccccc2)CC1 (mixture of isomers) [(+/-)-1,1-Dioxo-hexahydro-1lambda*6*-thiopyran-4-carboxylic acid{(S)-3-[4-(3-isopropyl-5-methyl-[1,2,4]triazol-4-yl)-piperidin-1-yl]-1-phenyl-butyl}-amide]	6.12 nM
Cc1nnc(C(C)C)n1C1CCN(C(C)C[C@H](NC(=O)C2CC[S+]([O-])CC2)c2ccccc2)CC1 (mixture of isomers) [(+/-)-1-Oxo-hexahydro-1lambda*4*-thiopyran-4-carboxylic acid{(S)-3-[4-(3-isopropyl-5-methyl-[1,2,4]triazol-4-yl)-piperidin-1-yl]-1-phenyl-butyl}-amide]	4.87 nM
CC(=O)N1CCC(C(=O)N[C@@H](CC(C)N2CCC(n3c(C)nnc3C(C)C)CC2)c2ccccc2)CC1 (mixture of isomers) [(+/-)-1-acetyl-N-((1S)-3-(4-(3-isopropyl-5-methyl-4H-1,2,4-triazol-4-yl)piperidin-1-yl)-1-phenylbutyl)piperidine-4-carboxamide]	28.7 nM
Cc1nnc(C(C)C)n1C1CCN(C(C)C[C@H](NC(=O)CC2CC2)c2ccccc2)CC1 (mixture of isomers) [(+/-)-2-cyclopropyl-N-((1S)-3-(4-(3-isopropyl-5-methyl-4H-1,2,4-triazol-4-yl)piperidin-1-yl)-1-phenylbutyl)acetamide]	3.16 nM
Cc1nnc(C(C)C)n1C1CCN(C(C)C[C@H](NC(=O)CC(F)(F)F)c2ccccc2)CC1 (mixture of isomers) [(+/-)-3,3,3-trifluoro-N-((1S)-3-(4-(3-isopropyl-5-methyl-4H-1,2,4-triazol-4-yl)piperidin-1-yl)-1-phenylbutyl)propanamide]	85.3 nM
Cc1nnc(C(C)C)n1C1CCN(C(C)C[C@H](NC(=O)COCC(F)(F)F)c2ccccc2)CC1 (mixture of isomers) [(+/-)-N-((1S)-3-(4-(3-isopropyl-5-methyl-4H-1,2,4-triazol-4-yl)piperidin-1-yl)-1-phenylbutyl)-2-(2,2,2-trifluoroethoxy)acetamide]	52.8 nM
Cc1nnc(C(C)C)n1C1CCN(C(C)C[C@H](NC(=O)N2CCN(C)CC2)c2ccccc2)CC1 (mixture of isomers) [(+/-)-N-((1S)-3-(4-(3-isopropyl-5-methyl-4H-1,2,4-triazol-4-yl)piperidin-1-yl)-1-phenylbutyl)-4-methylpiperazine-1-carboxamide]	187 nM
CC(=O)N[C@@H](CC(C)N1CCC(n2c(C)nnc2C(C)C)CC1)c1ccccc1 (mixture of isomers) [(+/-)-N-((1S)-3-(4-(3-isopropyl-5-methyl-4H-1,2,4-triazol-4-yl)piperidin-1-yl)-1-phenylbutyl)acetamide]	89.2 nM
Cc1nnc(C(C)C)n1C1CCN(C(C)C[C@H](NC(=O)C2CCCCC2)c2ccccc2)CC1 (mixture of isomers) [(+/-)-N-((1S)-3-(4-(3-isopropyl-5-methyl-4H-1,2,4-triazol-4-yl)piperidin-1-yl)-1-phenylbutyl)cyclohexanecarboxamide]	0.513 nM
Cc1nnc(C(C)C)n1C1CCN(C(C)C[C@H](NC(=O)C2CCCC2)c2ccccc2)CC1 (mixture of isomers) [(+/-)-N-((1S)-3-(4-(3-isopropyl-5-methyl-4H-1,2,4-triazol-4-yl)piperidin-1-yl)-1-phenylbutyl)cyclopentanecarboxamide]	0.137 nM
Cc1nnc(C(C)C)n1C1CCN(C(C)C[C@H](NC(=O)C2CC2)c2ccccc2)CC1 (mixture of isomers) [(+/-)-N-((1S)-3-(4-(3-isopropyl-5-methyl-4H-1,2,4-triazol-4-yl)piperidin-1-yl)-1-phenylbutyl)cyclopropanecarboxamide]	3.93 nM
Cc1nnc(C(C)C)n1C1CCN(C(C)C[C@H](NC(=O)C(C)C)c2ccccc2)CC1 (mixture of isomers) [(+/-)-N-((1S)-3-(4-(3-isopropyl-5-methyl-4H-1,2,4-triazol-4-yl)piperidin-1-yl)-1-phenylbutyl)isobutyramide]	3.11 nM
Cc1nnc(C(C)C)n1C1CCN(C(C)C[C@H](NC(=O)N2CCOCC2)c2ccccc2)CC1 (mixture of isomers) [(+/-)-N-((1S)-3-(4-(3-isopropyl-5-methyl-4H-1,2,4-triazol-4-yl)piperidin-1-yl)-1-phenylbutyl)morpholine-4-carboxamide]	176 nM
Cc1nnc(C(C)C)n1C1CCN(C(C)C[C@H](NC(=O)C2CCOCC2)c2ccccc2)CC1 (mixture of isomers) [(+/-)-N-((1S)-3-(4-(3-isopropyl-5-methyl-4H-1,2,4-triazol-4-yl)piperidin-1-yl)-1-phenylbutyl)tetrahydro-2H-pyran-4-carboxamide]	164 nM
COC(=O)N[C@@H](CC(C)N1CCC(n2c(C)nnc2C(C)C)CC1)c1ccccc1 (mixture of isomers) [(+/-)-methyl(1S)-3-(4-(3-isopropyl-5-methyl-4H-1,2,4-triazol-4-yl)piperidin-1-yl)-1-phenylbutylcarbamate]	315 nM
Cc1nnc(C(C)C)n1C1CCN([C@H](C)C[C@H](NC(=O)C2CC(F)(F)C2)c2ccccc2)CC1 [3,3-difluoro-N-((1S,3R)-3-(4-(3-isopropyl-5-methyl-4H-1,2,4-triazol-4-yl)piperidin-1-yl)-1-phenylbutyl)cyclobutanecarboxamide]	0.48 nM
Cc1nc(C(C)C)n(C2CC3CCC(C2)N3CC[C@H](NC(=O)C2CCC(F)(F)CC2)c2ccccc2)n1 (stereo partly drawn) [4,4-difluoro-N-((1S)-3-(3-(5-isopropyl-3-methyl-1H-1,2,4-triazol-1-yl)-8-azabicyclo[3.2.1]octan-8-yl)-1-phenylpropyl)cyclohexanecarboxamide]	1.4 nM
Cc1nnc(C(C)C)n1C1CCN([C@@H](C)C[C@H](NC(=O)C2CCC(F)(F)CC2)c2ccccc2)CC1 [4,4-difluoro-N-((1S,3S)-3-(4-(3-isopropyl-5-methyl-4H-1,2,4-triazol-4-yl)piperidin-1-yl)-1-phenylbutyl)cyclohexanecarboxamide]	49.9 nM
